Usually IC50 stands for the concentration that gives 50% inhibition.

The target in one series is hROMK (human Kir1.1) (Homo sapiens (Human), UniProt P48048). In words: cell-based. Conditions: CHO T-Rex hROMK stable cell line; thallium flux; 10-point concentration response curve; read-out: Human ROMK Th Flux IC50.
A further series concerns the target hERG channels (Homo sapiens (Human), UniProt Q12809). In words: hERG Manual Patch Clamp Assay. The conditions noted are these: human, HEK 293 cells stably expressing hERG channels, pH 7.4, 1 uM, read-out: hERG EP % Inh @ 1 uM. In kind it is cell-based.

hROMK (human Kir1.1), sequence (P48048 whole entry): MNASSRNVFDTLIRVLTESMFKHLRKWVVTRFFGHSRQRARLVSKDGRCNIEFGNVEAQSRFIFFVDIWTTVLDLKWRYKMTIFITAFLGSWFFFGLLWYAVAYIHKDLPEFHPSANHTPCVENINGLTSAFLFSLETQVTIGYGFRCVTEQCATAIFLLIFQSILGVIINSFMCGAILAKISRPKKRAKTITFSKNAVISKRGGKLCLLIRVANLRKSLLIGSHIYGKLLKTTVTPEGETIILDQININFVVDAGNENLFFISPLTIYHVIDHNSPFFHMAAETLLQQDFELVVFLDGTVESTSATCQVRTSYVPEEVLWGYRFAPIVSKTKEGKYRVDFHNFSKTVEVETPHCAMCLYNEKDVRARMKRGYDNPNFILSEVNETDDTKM
hERG channels, sequence (Q12809 whole entry): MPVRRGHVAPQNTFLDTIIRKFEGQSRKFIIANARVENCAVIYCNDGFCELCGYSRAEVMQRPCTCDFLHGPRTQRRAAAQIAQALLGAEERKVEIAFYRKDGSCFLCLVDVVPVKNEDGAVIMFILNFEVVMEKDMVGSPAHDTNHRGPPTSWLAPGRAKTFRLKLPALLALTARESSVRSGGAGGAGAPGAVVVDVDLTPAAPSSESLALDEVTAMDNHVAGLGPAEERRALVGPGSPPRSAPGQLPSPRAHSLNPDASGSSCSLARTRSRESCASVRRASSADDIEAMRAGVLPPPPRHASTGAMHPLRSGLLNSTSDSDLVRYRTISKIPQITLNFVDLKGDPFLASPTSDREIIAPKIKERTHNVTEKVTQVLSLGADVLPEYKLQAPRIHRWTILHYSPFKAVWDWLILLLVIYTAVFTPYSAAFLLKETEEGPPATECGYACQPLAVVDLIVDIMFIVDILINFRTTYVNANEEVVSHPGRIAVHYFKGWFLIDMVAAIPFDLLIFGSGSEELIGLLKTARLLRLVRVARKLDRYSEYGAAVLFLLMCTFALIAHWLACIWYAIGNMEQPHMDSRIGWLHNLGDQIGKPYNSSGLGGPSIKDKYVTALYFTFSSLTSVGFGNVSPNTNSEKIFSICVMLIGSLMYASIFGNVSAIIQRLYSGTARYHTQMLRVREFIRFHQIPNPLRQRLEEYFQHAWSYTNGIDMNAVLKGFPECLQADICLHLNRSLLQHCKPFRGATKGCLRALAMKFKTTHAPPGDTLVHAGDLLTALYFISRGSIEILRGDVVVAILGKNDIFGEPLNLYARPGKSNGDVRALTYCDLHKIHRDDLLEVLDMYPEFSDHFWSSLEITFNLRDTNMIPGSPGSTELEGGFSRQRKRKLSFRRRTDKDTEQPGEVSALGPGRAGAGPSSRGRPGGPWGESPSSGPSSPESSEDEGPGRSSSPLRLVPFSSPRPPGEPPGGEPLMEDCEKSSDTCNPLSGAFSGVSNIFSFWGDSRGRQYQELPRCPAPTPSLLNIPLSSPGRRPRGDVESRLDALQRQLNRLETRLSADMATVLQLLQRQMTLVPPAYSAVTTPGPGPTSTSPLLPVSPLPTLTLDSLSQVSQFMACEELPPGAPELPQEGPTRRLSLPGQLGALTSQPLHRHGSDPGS

As for `COc1cc(-c2ccc(CN3CCN[C@H](c4ccc5c(c4C)COC5=O)C3)c(OC)n2)ncc1C#N` [Example 143-I, (R)-4,6′-dimethoxy-5′-((3-(4-methyl-1-oxo-1,3-dihydroisobenzofuran-5-yl)piperazin-1-yl)methyl)-[2,2′-bipyridine]-5-carbonitrile], the IC50 on hROMK (human Kir1.1) stood at 63 nM. For the same compound, the inhibition at 1 µM on hERG channels worked out at 49%.

On to `Cc1cn(-c2ncc(CN3CCN[C@H](c4ccc5c(c4C)COC5=O)C3)cc2F)cn1` [Example 144-I, (R)-5-(4-((5-fluoro-6-(4-mehtyl-1H-imidazol-1-yl)pyridin-3-yl)methyl)piperazin-2-yl)-4-methylisobenzofuran-1(3H)-one], for which the IC50 at hROMK (human Kir1.1) is 24 nM. Besides, the inhibition at 1 µM at hERG channels is 7.8%.

For the compound `Cc1cc(-n2cc(CN3CCN[C@H](c4ccc5c(c4C)COC5=O)C3)c(C)n2)ncc1C#N` [Example 145-I, (R)-4-methyl-6-(3-methyl-4-((3-(4-methyl-1-oxo-1,3-dihydroisobenzofuran-5-yl)piperazin-1-yl)methyl)-1H-pyrazol-1-yl)nicotinonitrile], the 50% inhibitory concentration (IC50) at hROMK (human Kir1.1) is 15 nM. Further, the inhibition at 1 µM at hERG channels is 25%.

`Cc1cc(-n2ncc(CN3CCN[C@H](c4ccc5c(c4C)COC5=O)C3)c2C)ncc1C#N` [Example 146-I, (R)-4-methyl-6-(5-methyl-4-((3-(4-methyl-1-oxo-1,3-dihydroisobenzofuran-5-yl)piperazin-1-yl)methyl)-1H-pyrazol-1-yl)nicotinonitrile]: the IC50 on hROMK (human Kir1.1) is 25 nM. The inhibition at 1 µM on hERG channels was determined as 16%.

For `COc1cc(-n2cnc(C)c2)ncc1CN1CCN[C@H](c2ccc3c(c2C)COC3=O)C1` [Example 149-I, (R)-5-(4-((4-methoxy-6-(4-methyl-1H-imidazol-1-yl)pyridin-3-yl)methyl)piperazin-2-yl)-4-methylisobenzofuran-1(3H)-one], the IC50 at hROMK (human Kir1.1) was determined as 52 nM. The inhibition at 1 µM at hERG channels was 7.6%.

Take `Cc1ncn(-c2ncc(CN3CCN[C@H](c4ccc5c(c4C)COC5=O)C3)cn2)c1C(F)F` [Example 150-I, (R)-5-(4-((2-(5-(difluoromethyl)-4-methyl-1H-imidazol-1-yl)pyrimidin-5-yl)methyl)piperazin-2-yl)-4-methylisobenzofuran-1(3H)-one]: the IC50 on hROMK (human Kir1.1) was determined as 100 nM. The inhibition at 1 µM on hERG channels is 14%.

As to `COc1cc(N2CC(CN3CCN[C@H](c4ccc5c(c4C)COC5=O)C3)CC2=O)ncc1C#N` (stereo partly drawn) [Example 159-I, 4-methoxy-6-(4-(((R)-3-(4-methyl-1-oxo-1,3-dihydroisobenzofuran-5-yl)piperazin-1-yl)methyl)-2-oxopyrrolidin-1-yl)nicotinonitrile], the IC50 at hROMK (human Kir1.1) came to 16 nM. Also, at hERG channels, the inhibition at 1 µM worked out at 21%.

As for `Cc1cc(-n2cnc(CN3CC[C@@H](O)[C@H](c4ccc5c(c4C)COC5=O)C3)c2)ncc1C#N` [Example 163-I, 6-(4-(((3R,4R)-4-hydroxy-3-(4-methyl-1-oxo-1,3-dihydroisobenzofuran-5-yl)piperidin-1-yl)methyl)-1H-imidazol-1-yl)-4-methylnicotinonitrile], the IC50 on hROMK (human Kir1.1) amounted to 29 nM. For the same compound, at hERG channels, the inhibition at 1 µM stood at 4.5%.

Consider `Cc1c([C@@H]2CN(Cc3cnn(-c4cc(N5CCOC5=O)ccn4)c3)CCN2)ccc2c1COC2=O` [Example 185-I, (R)-3-(2-(4-((3-(4-methyl-1-oxo-1,3-dihydroisobenzofuran-5-yl)piperazin-1-yl)methyl)-1H-pyrazol-1-yl)pyridin-4-yl)oxazolidin-2-one], for which the IC50 at hROMK (human Kir1.1) was 100 nM. Also, the inhibition at 1 µM at hERG channels amounted to 9.6%.

As for `COc1cc(-n2cc(CCN3C[C@@H](c4ccc5c(c4C)COC5=O)N[C@@H](C)C3)cn2)ncc1C#N` [Example 192-I, 4-methoxy-6-(4-(2-((3S,5R)-3-methyl-5-(4-methyl-1-oxo-1,3-dihydroisobenzofuran-5-yl)piperazin-1-yl)ethyl)-1H-pyrazol-1-yl)nicotinonitrile], the IC50 at hROMK (human Kir1.1) was determined as 16 nM. On hERG channels, the inhibition at 1 µM worked out at 46%.

Take `COc1ncnc(-n2cc(CN3C[C@@H](c4ccc5c(c4C)COC5=O)N[C@@H](C)C3)cn2)n1` [Example 194-I, 5-((2R,6S)-4-((1-(4-methoxy-1,3,5-triazin-2-yl)-1H-pyrazol-4-yl)methyl)-6-methylpiperazin-2-yl)-4-methylisobenzofuran-1(3H)-one]: the IC50 on hROMK (human Kir1.1) came out at 60 nM. Besides, the inhibition at 1 µM at hERG channels came to 11%.

Regarding `Cc1c([C@@H]2CN(Cc3cnn(-c4cc(C#N)ccn4)c3)CCN2)ccc2c1COC2=O` [Example 198-I, (R)-2-(4-((3-(4-methyl-1-oxo-1,3-dihydroisobenzofuran-5-yl)piperazin-1-yl)methyl)-1H-pyraozl-1-yl)isonicotinonitrile], the IC50 on hROMK (human Kir1.1) amounted to 83 nM. For the same compound, the inhibition at 1 µM on hERG channels was found to be 0%.

On to `Cc1cc(-c2cc(CN3C[C@@H](c4ccc5c(c4C)COC5=O)N[C@@H](C)C3)on2)ncc1C#N` [Example 214-I, 4-methyl-6-(5-(((3S,5R)-3-methyl-5-(4-methyl-1-oxo-1,3-dihydroisobenzofuran-5-yl)piperazin-1-yl)methyl)isoxazol-3-yl)nicotinonitrile], for which, at hROMK (human Kir1.1), the IC50 is 6.6 nM. Further, the inhibition at 1 µM on hERG channels was 22%.

For the compound `Cc1c([C@@H]2CN(Cc3cnc(-n4cnc(C#N)c4)nc3)CCN2)ccc2c1COC2=O` [Example 215-I], the IC50 at hROMK (human Kir1.1) amounted to 11 nM. Further, at hERG channels, the inhibition at 1 µM is 29%.

Consider `Cc1c([C@@H]2CN(Cc3cnc(-n4cnc(C#N)n4)nc3)CCN2)ccc2c1COC2=O` [Example 217-I, (R)-1-(5-((3-(4-methyl-1-oxo-1,3-dihydroisobenzofuran-5-yl)piperazin-1-yl)methyl)pyrimidin-2-yl)-1H-1,2,4-triazole-3-carbonitrile], for which the IC50 at hROMK (human Kir1.1) is 24 nM. Further, the inhibition at 1 µM on hERG channels was found to be 16%.

As for `Cc1c([C@@H]2CN(Cc3cnc(-n4cc(C#N)c(C5CC5)n4)nc3)CCN2)ccc2c1COC2=O` [Example 218-I, (R)-3-cyclopropyl-1-(5-((3-(4-methyl-1-oxo-1,3-dihydroisobenzofuran-5-yl)piperazin-1-yl)methyl)pyrimidin-2-yl)-1H-pyrazole-4-carbonitrile], the IC50 on hROMK (human Kir1.1) is 33 nM. Besides, the inhibition at 1 µM on hERG channels was found to be 39%.

As for `Cc1c([C@@H]2CN(Cc3ccc(-n4cc(C#N)c(OC(F)F)n4)nc3)CCN2)ccc2c1COC2=O` [Example 219-I, (R)-3-(difluoromethoxy)-1-(5-((3-(4-methyl-1-oxo-1,3-dihydroisobenzofuran-5-yl)piperazin-1-yl)methyl)pyridin-2-yl)-1H-pyrazole-4-carbonitrile], on hROMK (human Kir1.1), the IC50 stood at 21 nM. On hERG channels, the inhibition at 1 µM was 75%.

For `Cc1c([C@@H]2CN(Cc3cnn(-c4cc(N5CCOCC5)c(C#N)cn4)c3)CCN2)ccc2c1COC2=O` [Example 220-I, (R)-6-(4-((3-(4-methyl-1-oxo-1,3-dihydroisobenzofuran-5-yl)piperazin-1-yl)methyl)-1H-pyrazol-1-yl)-4-morpholinonicotinonitrile], the IC50 on hROMK (human Kir1.1) amounted to 29 nM. In addition, the inhibition at 1 µM at hERG channels is 30%.

As for `Cc1cn(-c2ccc(CN3CCN[C@H](c4ccc5c(c4C)COC5=O)C3)cn2)nn1` [Example 222-I, (R)-4-methyl-5-(4-((6-(4-methyl-1H-1,2,3-triazol-1-yl)pyridin-3-yl)methyl)piperazin-2-yl)isobenzofuran-1(3H)-one], the IC50 at hROMK (human Kir1.1) amounted to 60 nM. Moreover, at hERG channels, the inhibition at 1 µM came out at 12%.

For the compound `COc1nn(-c2ccc(CN3CCN[C@H](c4ccc5c(c4C)COC5=O)C3)cn2)cc1C#N` [Example 223-I, (R)-3-methoxy-1-(5-((3-(4-methyl-1-oxo-1,3-dihydroisobenzofuran-5-yl)piperazin-1-yl)methyl)pyridin-2-yl)-1H-pyrazole-4-carbonitrile], at hROMK (human Kir1.1), the IC50 was 18 nM. On hERG channels, the inhibition at 1 µM came out at 56%.

As for `Cc1c([C@@H]2CN(Cc3ccc(-n4cc(C#N)nn4)nc3)CCN2)ccc2c1COC2=O` [Example 225-I, (R)-1-(5-((3-(4-methyl-1-oxo-1,3-dihydroisobenzofuran-5-yl)piperazin-1-yl)methyl)pyridin-2-yl)-1H-1,2,3-triazole-4-carbonitrile], the IC50 at hROMK (human Kir1.1) came to 19 nM. In addition, the inhibition at 1 µM at hERG channels amounted to 39%.

Consider `CCc1nn(-c2ccc(CN3CCN[C@H](c4ccc5c(c4C)COC5=O)C3)cn2)cc1C#N` [Example 226-I, (R)-3-ethyl-1-(5-((3-(4-methyl-1-oxo-1,3-dihydroisobenzofuran-5-yl)piperazin-1-yl)methyl)pyridin-2-yl)-1H-pyrazole-4-carbonitrile], for which the IC50 at hROMK (human Kir1.1) stood at 14 nM. Moreover, the inhibition at 1 µM on hERG channels was 33%.

Turning to `COc1nn(-c2ncc(CN3CCN[C@H](c4ccc5c(c4C)COC5=O)C3)cn2)cc1C#N` [Example 227-I, (R)-3-methoxy-1-(5-((3-(4-methyl-1-oxo-1,3-dihydroisobenzofuran-5-yl)piperazin-1-yl)methyl)pyrimidin-2-yl)-1H-pyrazole-4-carbonitrile], at hROMK (human Kir1.1), the IC50 came out at 28 nM. The inhibition at 1 µM at hERG channels was determined as 18%.

For the compound `Cc1c([C@@H]2CN(Cc3cnc(-n4cc(C#N)c(C(F)F)n4)nc3)CCN2)ccc2c1COC2=O` [Example 229-I, (R)-3-(difluoromethyl)-1-(5-((3-(4-methyl-1-oxo-1,3-dihydroisobenzofuran-5-yl)piperazin-1-yl)methyl)pyrimidin-2-yl)-1H-pyrazole-4-carbonitrile], the IC50 at hROMK (human Kir1.1) was found to be 21 nM. The inhibition at 1 µM on hERG channels is 25%.

Regarding `Cc1cc(-n2cc(CN3CCN[C@H](c4ccc5c(c4C)COC5=O)C3)c(C(F)F)n2)ncc1C#N` [Example 233-I, (R)-6-(3-(difluoromethyl)-4-((3-(4-methyl-1-oxo-1,3-dihydroisobenzofuran-5-yl)piperazin-1-yl)methyl)-1H-pyrazol-1-yl)-4-methylnicotinonitrile], the IC50 on hROMK (human Kir1.1) was found to be 22 nM. In addition, at hERG channels, the inhibition at 1 µM was determined as 31%.

These data come from patent US10501449B2 (priority 2018, dated 2019).
